Data reported in patent publication US12187672B2, “1,2-diacylglycerol compound, preparation method therefor, and immunomodulator containing same as active ingredient” (ENZYCHEM LIFESCIENCES CORPORATION, priority 2018, dated 2025).

What was measured:
[1] = test system: CXCL8 (IL-8); experiment: CXCL8 (IL-8) expression reduction in Gemcitabine-treated THP-1 cells (ELISA); format: cell-based, human; conditions: THP-1 cells; for CXCL8 [IL-8] concentration (average ± deviation): sample 100 μg/ml 1 h, then Gemcitabine 2 μg/ml 24 h; for reduction of CXCL8 (IL-8) expression/secretion: Gemcitabine-treated, 100 μg/ml
Method in brief: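 Human THP-1 macrophage-like cells in RPMI/10% FBS, plated at 1×10^6 cells/ml, pretreated 1 h with compound, then stimulated with Gemcitabine (2 μg/ml) for 24 h at 37° C, 5% CO2. Secreted IL-8 in the supernatant was measured by sandwich ELISA, read at 450 nm.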

[2] = test system: IL-6; experiment: LPS-induced IL-6 secretion reduction in RAW264.7 cells (ELISA); format: cell-based, mouse; conditions: for IL-6 concentration (average ± deviation): sample 100 μg/ml 1 h, then LPS 1 μg/ml 24 h
Method in brief: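 Mouse RAW264.7 macrophages in DMEM/10% FBS were plated at 5×10^4 cells/ml, rested for 15 h, treated with compound for 1 h, then stimulated with 1 μg/ml LPS for 24 h at 37 °C. IL-6 in the supernatant was measured by sandwich ELISA (HRP, OD 450 nm) and expressed as reduction rate or concentration.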

[3] = test system: HL-60 cells; experiment: Migration of HL-60 cell line toward THP-1 culture supernatant (transmigration assay); format: cell-based, human; conditions: supernatant of THP-1 cells treated with sample 100 μg/ml 1 h, then Gemcitabine 2 μg/ml 24 h
Method in brief: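 THP-1 cells pretreated 1 h with compounds, then stimulated with gemcitabine (2 μg/ml) for 24 h; supernatant placed in lower chamber. HL-60 cells (5×10^4/chamber) migrated through laminin I-coated upper chamber; migrated cells quantified by Calcein-AM fluorescence converted to cell number.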

[4] = test system: STAT3; experiment: STAT3 activity, pGL4.47 SIE luciferase reporter in LPS-treated RAW264.7 cells; format: cell-based, mouse; conditions: sample 100 μg/ml 1 h, then LPS 1 μg/ml 18 h
Experimental: pGL4.47 [luc2P/SIE/Hygro] vector containing the sis-Inducible Element that binds to STAT3 was injected into RAW264.7 cells to confirm the degree of STAT3 activity. In DMEM (Hyclone, Thermo Scientific) medium to which 10% Fetal Bovine Serum was added, RAW264.7 cells were cultured at a concentration of 1×10^5 cells/ml, and maintained in a 5% CO2 humidified incubator at 37° C. The cultured RAW264.7 cells were inoculated into a 48 well plate by 1×10^5 cells/ml and stabilized for 18 hours. Thereafter, the pGL4.47 [luc2P/SIE/Hygro] vector containing sis-Inducible Element was mixed with Attractene to induce complex formation at room temperature for 15 minutes. This complex was treated with the cells and then further incubated for 18 hours. Thereafter, the culture solution was treated with a glycerol derivative compounds of the type shown in Table 5 below for 1 hour and then LPS (1 μg/ml) was treated and further incubated for 18 hours for STAT3 activity. Thereafter, the culture supernatant was removed for each well, and the remaining cells were lysed with a cell lysis buffer, and then cell lysate was recovered. 90 μl of luciferase reagent was mixed with 10 μl of the recovered cell lysate, and the degree of fluorescence was confirmed using a luminometer.

Row | Compound | CXCL8 [IL-8] concentration (average ± deviation) [1] [pg/µL] | IL-6 concentration (average ± deviation) ([2]; Table 3) [pg/µL] | Number of HL-60 cells migrated through Transwell [3] [Cell Number] | STAT3 activity_Luciferase activity (average ± deviation) [4] | reduction of CXCL8 (IL-8) expression/secretion [1] | IL-6 concentration (average ± deviation) ([2]; Table 2) [pg/µL] | decrease of IL-6 secretion/expression compared to the LPS-treated group ([2]; 100 μg/ml)
1 | CCCCC/C=C\C/C=C\CCCCCCCC(=O)OC(COC(=O)CCCCCC)COC(=O)CCCCCCCCCCCCCCC (centres unmarked) [EC_A83] | 107.7 ± 3.9 | 0.658 ± 0.070 | 7316.6 | 510.2 ± 27.2 |  |  | 
2 | CCCCC/C=C\C/C=C\CCCCCCCC(=O)OC(COC(=O)CCCC)COC(=O)CCCCCCCCCCC (centres unmarked) [EC_A93] | 110.9 ± 0.0 | 0.765 ± 0.055 | 6828.6 | 536.2 ± 222.3 |  |  | 
3 | CCCCC/C=C\C/C=C\CCCCCCCC(=O)OC(COC(=O)CCCC)COC(=O)CCCCCCCCC (centres unmarked) [EC_A99] | 102.0 ± 19.3 | 0.666 ± 0.075 | 7164.9 | 353.2 ± 83.0 |  |  | 
4 | CCCCC/C=C\C/C=C\CCCCCCCC(=O)OC(COC(=O)CCCCCCCCCCC)COC(=O)C(C)CC (centres unmarked) [EC_A96] | 103.7 ± 5.4 | 0.788 ± 0.006 | 15110.8 | 1136.7 ± 63.9 |  |  | 
5 | CCCCC/C=C\C/C=C\CCCCCCCC(=O)OC(COC(=O)CCC)COC(=O)CCCCCCC (centres unmarked) [EC_A85] | 94.4 ± 3.4 | 0.741 ± 0.071 | 7687.7 | 1126.7 ± 32.1 |  |  | 
6 | CCCCC/C=C\C/C=C\CCCCCCCC(=O)OC(COC(=O)CCCCCCCCC)COC(=O)C(C)CC (centres unmarked) [EC_A102] | 102.5 ± 4.4 | 0.738 ± 0.070 | 8091.5 | 602 ± 11.3 |  |  | 
7 | CCCCC/C=C\C/C=C\CCCCCCCC(=O)OC(COC(=O)CC)COC(=O)CCCCCCC (centres unmarked) [EC_A87] | 134.4 ± 10.7 | 0.705 ± 0.158 | 7198.0 | 1312 ± 34.6 |  |  | 
8 | CCCCC/C=C\C/C=C\CCCCCCCC(=O)OC(COC(=O)CC)COC(=O)CCCCCCCCC (centres unmarked) [EC_A97] | 96.2 ± 0.2 | 0.745 ± 0.015 | 7440.6 | 573.2 ± 146.7 |  |  | 
9 | CCCCC/C=C\C/C=C\CCCCCCCC(=O)OC(COC(=O)CCCCCCCCCCCCCCC)COC(=O)C1CC1 (centres unmarked) [EC_A79] | 108.7 ± 8.3 | 0.652 ± 0.145 | 12527.5 | 1183.5 ± 51.6 |  |  | 
10 | CCCCC/C=C\C/C=C\CCCCCCCC(=O)OC(COC(=O)CCC)COC(=O)CCCCCCCCCCC (centres unmarked) [EC_A92] | 105.1 ± 0.2 | 0.800 ± 0.038 | 2891.6 | 820 ± 448.3 |  |  | 
11 | CCCCC/C=C\C/C=C\CCCCCCCC(=O)OC(COC(=O)CC)COC(=O)CCCCCCCCCCCCCCC (centres unmarked) [EC_A78] | 108.5 ± 4.9 | 0.708 ± 0.086 | 23396.6 | 912.5 ± 214.2 |  |  | 
12 | CCCCC/C=C\C/C=C\CCCCCCCC(=O)OC(COC(=O)CCCCCCCCC)COC(=O)C(C)(C)C (centres unmarked) [EC_A101] | 118.1 ± 2.8 | 0.645 ± 0.057 | 4848.9 | 581.7 ± 8.1 |  |  | 
13 | CCCCC/C=C\C/C=C\CCCCCCCC(=O)OC(COC(=O)CCC)COC(=O)CCCCCCCCC (centres unmarked) [EC_A98] | 105 ± 2.0 | 0.619 ± 0.036 | 11056.8 | 370.7 ± 35.0 |  |  | 
14 | CCCCCC=CCC=CCCCCCCCC(=O)OC(COC(=O)CCCCCCC)COC(=O)C(C)(C)C (centres unmarked) [EC_A89] | 123.1 ± 0.0 | 0.736 ± 0.097 | 6969.9 | 1087.7 ± 257.7 |  |  | 
15 | CCCCC/C=C\C/C=C\CCCCCCCC(=O)OC(COC(=O)CCCC)COC(=O)CCCCCCC (centres unmarked) [EC_A86] | 99.2 ± 4.9 | 0.796 ± 0.045 | 18542.0 | 866.2 ± 15.2 |  |  | 
16 | CCCCC/C=C\C/C=C\CCCCCCCC(=O)OC(COC(=O)CC)COC(=O)CCCCCCCCCCC (centres unmarked) [EC_A91] | 96.1 ± 3.6 | 0.752 ± 0.068 | 9429.8 | 746.5 ± 26.1 |  |  | 
17 | CCCCC/C=C\C/C=C\CCCCCCCC(=O)OC(COC(=O)CCCCCCCCCCCCCCC)COC(C)C (centres unmarked) [EC_A21] | 86.2 ± 0.7 |  | 1986.3 |  | about 20% | 176 ± 2 | 
18 | CCCCC/C=C\C/C=C\CCCCCCCC(=O)OC(COC(=O)CCCCCCCCC)COC(=O)C(C)C (centres unmarked) [EC_A100] | 115.1 ± 3.9 | 0.749 ± 0.054 | 8947.2 | 572.2 ± 60.4 |  |  | 
19 | CCCCC/C=C\C/C=C\CCCCCCCC(=O)OC(COC(=O)CCCCCCC)COC(=O)C(C)C (centres unmarked) [EC_A88] | 91.4 ± 3.4 | 0.792 ± 0.086 | 17552.5 | 1171.5 ± 146.3 |  |  | 
20 | CCCCC/C=C\C/C=C\CCCCCCCC(=O)OC(COC(C)=O)COC(=O)CCCCCCCCCCCCCCC (centres unmarked) [EC-18, 1-palmitoyl-2-linoleoyl-3-acetylglycerol, reference compound] | 79.6 ± 6.0 | 0.491 ± 0.063 | 2697.2 | 491.5 ± 41.7 | about 20% | 194 ± 11 | about 30%
